One may read the EC50 as the concentration at which the effect is half-maximal.

Structures are written as SMILES.

In this experiment the target is human GLP-1 receptor (Homo sapiens (Human), UniProt P43220). The note with it: read-out: Mean EC50; cAMP, HTRF detection, 30 min at 37° C., HEK-293 cells expressing cloned human GLP-1 receptor.
Sequence of human GLP-1 receptor (P43220 24-463): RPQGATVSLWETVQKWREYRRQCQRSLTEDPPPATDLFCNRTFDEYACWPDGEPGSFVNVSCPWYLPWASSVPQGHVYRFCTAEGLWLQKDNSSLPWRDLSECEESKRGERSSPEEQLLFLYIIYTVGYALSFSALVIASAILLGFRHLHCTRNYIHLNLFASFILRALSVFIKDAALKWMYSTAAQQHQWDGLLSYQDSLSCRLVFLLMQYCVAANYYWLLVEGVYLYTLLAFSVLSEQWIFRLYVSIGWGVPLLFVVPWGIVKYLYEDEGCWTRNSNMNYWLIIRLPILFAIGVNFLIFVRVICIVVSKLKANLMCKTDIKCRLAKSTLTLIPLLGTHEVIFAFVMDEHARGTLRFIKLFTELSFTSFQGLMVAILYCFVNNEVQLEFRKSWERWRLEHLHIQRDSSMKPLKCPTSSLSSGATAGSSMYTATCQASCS
Take `CC(=O)N1Cc2cc3c(cc2C[C@H]1C(=O)N[C@@H](Cc1ccc(-c2ccnc(C)c2C)cc1)C(=O)O)OC[C@H](c1ccc(OCc2ccc(Cl)c(Cl)c2)cc1)O3` [Example 150, (S)-2-({(3S,8S)-7-Acetyl-3-[4-(3,4-dichloro-benzyloxy)-phenyl]-2,3,6,7,8,9-hexahydro-[1,4]dioxino[2,3-g]isoquinoline-8-carbonyl}-amino)-3-[4-(2,3-dimethyl-pyridin-4-yl)-phenyl]-propionic acid]: the EC50 stood at 372 nM.

Turning to `Cc1ccccc1C(=O)N1Cc2cc3c(cc2C[C@H]1C(=O)N[C@@H](Cc1ccc(-c2ccnc(C)c2C)cc1)C(=O)O)OC[C@H](c1ccc(OCc2ccc(Cl)c(Cl)c2)cc1)O3` [Example 151, (S)-2-{[(3S,8S)-3-[4-(3,4-Dichloro-benzyloxy)-phenyl]-7-(2-methyl-benzoyl)-2,3,6,7,8,9-hexahydro-[1,4]dioxino[2,3-g]isoquinoline-8-carbonyl]-amino}-3-[4-(2,3-dimethyl-pyridin-4-yl)-phenyl]-propionic acid], the EC50 amounted to 18 nM.

As to `Cc1nccc(-c2ccc(C[C@H](NC(=O)[C@@H]3Cc4cc5c(cc4CN3C(=O)C(C)(C)C)O[C@@H](c3ccc(OCc4ccc(Cl)c(Cl)c4)cc3)CO5)C(=O)O)cc2)c1C` [Example 152, (S)-2-{[(3S,8S)-3-[4-(3,4-Dichloro-benzyloxy)-phenyl]-7-(2,2-dimethyl-propionyl)-2,3,6,7,8,9-hexahydro-[1,4]dioxino[2,3-g]isoquinoline-8-carbonyl]-amino}-3-[4-(2,3-dimethyl-pyridin-4-yl)-phenyl]-propionic acid], the EC50 is 80 nM.

Consider `Cc1nccc(-c2ccc(C[C@H](NC(=O)[C@@H]3Cc4cc5c(cc4CN3C(=O)C(C)C)O[C@@H](c3ccc(OCc4ccc(Cl)c(Cl)c4)cc3)CO5)C(=O)O)cc2)c1C` [Example 153, (S)-2-({(3S,8S)-3-[4-(3,4-Dichloro-benzyloxy)-phenyl]-7-isobutyryl-2,3,6,7,8,9-hexahydro-[1,4]dioxino[2,3-g]isoquinoline-8-carbonyl}-amino)-3-[4-(2,3-dimethyl-pyridin-4-yl)-phenyl]-propionic acid], for which the EC50 came to 327 nM.

For `Cc1nccc(-c2ccc(C[C@H](NC(=O)[C@@H]3Cc4cc5c(cc4CN3C(=O)C3CCCC3)O[C@@H](c3ccc(OCc4ccc(Cl)c(Cl)c4)cc3)CO5)C(=O)O)cc2)c1C` [Example 154, (S)-2-({(3S,8S)-7-Cyclopentanecarbonyl-3-[4-(3,4-dichloro-benzyloxy)-phenyl]-2,3,6,7,8,9-hexahydro-[1,4]dioxino[2,3-g]isoquinoline-8-carbonyl}-amino)-3-[4-(2,3-dimethyl-pyridin-4-yl)-phenyl]-propionic acid], the EC50 was 108 nM.

With `Cc1nccc(-c2ccc(C[C@H](NC(=O)[C@@H]3Cc4cc5c(cc4CN3C(=O)Cc3ccccc3)O[C@@H](c3ccc(OCc4ccc(Cl)c(Cl)c4)cc3)CO5)C(=O)O)cc2)c1C` [Example 155, (S)-2-({(3S,8S)-3-[4-(3,4-Dichloro-benzyloxy)-phenyl]-7-phenylacetyl-2,3,6,7,8,9-hexahydro-[1,4]dioxino[2,3-g]isoquinoline-8-carbonyl}-amino)-3-[4-(2,3-dimethyl-pyridin-4-yl)-phenyl]-propionic acid], the EC50 amounted to 525 nM.

As for `Cc1cccc(C(=O)N2Cc3cc4c(cc3C[C@H]2C(=O)N[C@@H](Cc2ccc(-c3ccnc(C)c3C)cc2)C(=O)O)OC[C@H](c2ccc(OCc3ccc(Cl)c(Cl)c3)cc2)O4)c1` [Example 157, (S)-2-{[(3S,8S)-3-[4-(3,4-Dichloro-benzyloxy)-phenyl]-7-(3-methyl-benzoyl)-2,3,6,7,8,9-hexahydro-[1,4]dioxino[2,3-g]isoquinoline-8-carbonyl]-amino}-3-[4-(2,3-dimethyl-pyridin-4-yl)-phenyl]-propionic acid], the concentration giving a half-maximal response (EC50) came to 34 nM.

`Cc1ccc(C(=O)N2Cc3cc4c(cc3C[C@H]2C(=O)N[C@@H](Cc2ccc(-c3ccnc(C)c3C)cc2)C(=O)O)OC[C@H](c2ccc(OCc3ccc(Cl)c(Cl)c3)cc2)O4)cc1` [Example 158, (S)-2-{[(3S,8S)-3-[4-(3,4-Dichloro-benzyloxy)-phenyl]-7-(4-methyl-benzoyl)-2,3,6,7,8,9-hexahydro-[1,4]dioxino[2,3-g]isoquinoline-8-carbonyl]-amino}-3-[4-(2,3-dimethyl-pyridin-4-yl)-phenyl]-propionic acid]: the EC50 came out at 146 nM.

In the case of `Cc1nccc(-c2ccc(C[C@H](NC(=O)[C@@H]3Cc4cc5c(cc4CN3C(=O)c3ccccc3)O[C@@H](c3ccc(OCc4ccc(Cl)c(Cl)c4)cc3)CO5)C(=O)O)cc2)c1C` [Example 159, (S)-2-({(3S,8S)-7-Benzoyl-3-[4-(3,4-dichloro-benzyloxy)-phenyl]-2,3,6,7,8,9-hexahydro-[1,4]dioxino[2,3-g]isoquinoline-8-carbonyl}-amino)-3-[4-(2,3-dimethyl-pyridin-4-yl)-phenyl]-propionic acid], the EC50 stood at 19 nM.

With `CC[C@@H](c1ccccc1)N1Cc2cc3c(cc2C[C@H]1C(=O)N[C@@H](Cc1ccc(-c2ccnc(C)c2C)cc1)C(=O)O)OC[C@H](c1ccc(OCC2CCCC2)cc1)O3` [Example 160, (S)-2-{[(3S,8S)-3-(4-Cyclopentylmethoxy-phenyl)-7-((S)-1-phenyl-propyl)-2,3,6,7,8,9-hexahydro-[1,4]dioxino[2,3-g]isoquinoline-8-carbonyl]-amino}-3-[4-(2,3-dimethyl-pyridin-4-yl)-phenyl]-propionic acid], the EC50 is 62 nM.

On to `CC[C@@H](c1ccccc1)N1Cc2cc3c(cc2C[C@H]1C(=O)N[C@@H](Cc1ccc(-c2ccnc(C)c2C)cc1)C(=O)O)OC[C@H](c1ccc(OC)cc1)O3` [Example 161, (S)-3-[4-(2,3-Dimethyl-pyridin-4-yl)-phenyl]-2-{[(3S,8S)-3-(4-methoxy-phenyl)-7-((S)-1-phenyl-propyl)-2,3,6,7,8,9-hexahydro-[1,4]dioxino[2,3-g]isoquinoline-8-carbonyl]-amino}-propionic acid], for which the EC50 worked out at 117 nM.

Consider `CC[C@@H](c1ccccc1)N1Cc2cc3c(cc2C[C@H]1C(=O)N[C@@H](Cc1ccc(-c2ccnc(C)c2C)cc1)C(=O)O)OC[C@H](c1ccc(OC(C)C)cc1)O3` [Example 162, (S)-3-[4-(2,3-Dimethyl-pyridin-4-yl)-phenyl]-2-{[(3S,8S)-3-(4-isopropoxy-phenyl)-7-((S)-1-phenyl-propyl)-2,3,6,7,8,9-hexahydro-[1,4]dioxino[2,3-g]isoquinoline-8-carbonyl]-amino}-propionic acid], for which the EC50 was determined as 56 nM.

In the case of `CC[C@@H](c1ccccc1)N1Cc2cc3c(cc2C[C@H]1C(=O)N[C@@H](Cc1ccc(-c2ccnc(C)c2C)cc1)C(=O)O)OC[C@H](c1ccc(OCC2CCCCC2)cc1)O3` [Example 163, (S)-2-{[(3S,8S)-3-(4-Cyclohexylmethoxy-phenyl)-7-((S)-1-phenyl-propyl)-2,3,6,7,8,9-hexahydro-[1,4]dioxino[2,3-g]isoquinoline-8-carbonyl]-amino}-3-[4-(2,3-dimethyl-pyridin-4-yl)-phenyl]-propionic acid], the EC50 was found to be 113 nM.

Take `CC[C@@H](c1ccccc1)N1Cc2cc3c(cc2C[C@H]1C(=O)N[C@@H](Cc1ccc(-c2ccnc(C)c2C)cc1)C(=O)O)OC[C@H](c1ccc(OC2CCCCC2)cc1)O3` [Example 164, (S)-2-{[(3S,8S)-3-(4-Cyclohexyloxy-phenyl)-7-((S)-1-phenyl-propyl)-2,3,6,7,8,9-hexahydro-[1,4]dioxino[2,3-g]isoquinoline-8-carbonyl]-amino}-3-[4-(2,3-dimethyl-pyridin-4-yl)-phenyl]-propionic acid]: the EC50 is 62 nM.

With `CC[C@@H](c1ccccc1)N1Cc2cc3c(cc2C[C@H]1C(=O)N[C@@H](Cc1ccc(-c2ccnc(C)c2C)cc1)C(=O)O)OC[C@H](c1ccc(OCCN(C)C)cc1)O3` [Example 165, (S)-2-{[(3S,8S)-3-[4-(2-Dimethylamino-ethoxy)-phenyl]-7-((S)-1-phenyl-propyl)-2,3,6,7,8,9-hexahydro-[1,4]dioxino[2,3-g]isoquinoline-8-carbonyl]-amino}-3-[4-(2,3-dimethyl-pyridin-4-yl)-phenyl]-propionic acid], the EC50 worked out at 396 nM.

In the case of `CCC(CC)Oc1ccc([C@H]2COc3cc4c(cc3O2)CN([C@@H](CC)c2ccccc2)[C@H](C(=O)N[C@@H](Cc2ccc(-c3ccnc(C)c3C)cc2)C(=O)O)C4)cc1` [Example 166, (S)-3-[4-(2,3-Dimethyl-pyridin-4-yl)-phenyl]-2-{[(3S,8S)-3-[4-(1-ethyl-propoxy)-phenyl]-7-((S)-1-phenyl-propyl)-2,3,6,7,8,9-hexahydro-[1,4]dioxino[2,3-g]isoquinoline-8-carbonyl]-amino}-propionic acid], the EC50 was determined as 22 nM.

Take `CC[C@@H](c1ccccc1)N1Cc2cc3c(cc2C[C@H]1C(=O)N[C@@H](Cc1ccc(-c2ccnc(C)c2C)cc1)C(=O)O)OC[C@H](c1ccc(OCCC2CCCC2)cc1)O3` [Example 167, (S)-2-{[(3S,8S)-3-[4-(2-Cyclopentyl-ethoxy)-phenyl]-7-((S)-1-phenyl-propyl)-2,3,6,7,8,9-hexahydro-[1,4]dioxino[2,3-g]isoquinoline-8-carbonyl]-amino}-3-[4-(2,3-dimethyl-pyridin-4-yl)-5 phenyl]-propionic acid]: the concentration for a half-maximal effect (EC50) stood at 174 nM.

Consider `CC[C@@H](c1ccccc1)N1Cc2cc3c(cc2C[C@H]1C(=O)N[C@@H](Cc1ccc(-c2ccnc(C)c2C)cc1)C(=O)O)OC[C@H](c1ccc(OCCC(C)(C)C)cc1)O3` [Example 168, (S)-2-{[(3S,8S)-3-[4-(3,3-Dimethyl-butoxy)-phenyl]-7-((S)-1-phenyl-propyl)-2,3,6,7,8,9-hexahydro-[1,4]dioxino[2,3-g]isoquinoline-8-carbonyl]-amino}-3-[4-(2,3-dimethyl-pyridin-4-yl)-phenyl]-propionic acid], for which the EC50 was 114 nM.

In the case of `CC[C@@H](c1ccccc1)N1Cc2cc3c(cc2C[C@H]1C(=O)N[C@@H](Cc1ccc(-c2ccnc(C)c2C)cc1)C(=O)O)OC[C@H](c1ccc(OCc2cccnc2)cc1)O3` [Example 169, (S)-3-[4-(2,3-Dimethyl-pyridin-4-yl)-phenyl]-2-({(3S,8S)-7-((S)-1-phenyl-propyl)-3-[4-(pyridin-3-ylmethoxy)-phenyl]-2,3,6,7,8,9-hexahydro-[1,4]dioxino[2,3-g]isoquinoline-8-carbonyl}-amino)-propionic acid], the EC50 amounted to 116 nM.

These data come from patent US9175003B2, “Substituted azoanthracene derivatives and intermediates for preparation thereof” (TransTech Pharma, LLC, priority 2009, dated 2015).
